Laboratory results taken from US20120258974A1, “USE OF A2B ADENOSINE RECEPTOR ANTAGONISTS FOR TREATING HEART FAILURE AND ARRHYTHMIA IN POST-MYOCARDIAL INFARCTION PATIENTS” (GILEAD SCIENCES, INC., priority 2011, published 2012).

Assays:
[1] = system: primary human cardiac fibroblasts (HCF); assay: NECA-induced release of IL-6, collagen, ST-2, PAPPA and expression of fibrotic markers in human cardiac fibroblasts (Example 2); assay type: cell-based; details: antagonist with NECA
Description: Real-time RT-PCR was performed as published using Stratagene PCR equipment (La Jolla, Calif.). Zhong H., et al., “A2B adenosine receptors increase cytokine release by bronchial smooth muscle cells,” American Journal of Respiratory Cell and Molecular Biology, 30(1): 118-125 (2004).
Expression of AdoR, α-smooth muscle actin and α-1 pro-collagen was determined using real-time RT-PCR. The concentration of IL-6, soluble ST-2 and PAPPA (Pregnancy-associated plasma protein A) in the cell supernatants were measured using ELISA, and the concentration of soluble collagen were determined using Sircol™ collagen assay.

[2] = system: CD1 mice with experimental AMI (permanent coronary artery ligation); assay: Transthoracic echocardiography of cardiac remodeling after AMI (Example 4); assay type: in vivo, mouse
Description: Adult out-bred male CD1 mice (8-12 weeks of age) were supplied by Harlan Sprague Dawley (Indianapolis, Ind.). The experiments were conducted under the guidelines of laboratory animals for biomedical research published by National Institutes of Health (No. 85-23, revised 1996). The study protocol was approved by the Virginia Commonwealth University Institutional Animal Care and Use Committee. Experimental AMI was induced by permanent coronary artery ligation in order to induce a large non-reperfused infarct involving approximately 30% of the left ventricle and leading to an ischemic dilated cardiomyopathy (Mezzaroma et al. Proc Natl Acad Sci 2011—in press and Abbate et al. Circulation 2008; 117:2670-83). Briefly, mice were orotracheally intubated under anesthesia (pentobarbital 50 to 70 mg/kg), placed in the right lateral decubitus position, then subjected to a left thoracotomy, pericardiectomy, and ligation of the proximal left coronary artery. The chest was closed and the animals were allowed to recover. The mice surviving surgery were randomly assigned to the different groups of treatment (N=6-15 per group). Sham operations were performed wherein animals underwent the same surgical procedure without coronary artery ligation (N=4-8 per group).
The A2B AdoR antagonist, Compound A, was obtained from Gilead Sciences, Foster City, Calif. Mice were randomly assigned to treatment with Compound A (4 mg/kg) or matching dose of vehicle administered intraperitoneally (final volume 0.13 mL) every 12 hours for 14 days starting immediately after coronary artery ligation surgery. An additional group of mice received a lower dose of Compound A (2 mg/kg) to explore a dose-response relationship. Two additional groups of mice received Compound A (4 mg/kg) starting 1 hour after surgery to simulate a clinical scenario of treatment delay. […]
All mice underwent transthoracic echocardiography at baseline (before surgery), and at 7, 14 and 28 days after surgery (prior to sacrifice). […] This example measured the left ventricular (LV) end-diastolic and end-systolic areas at B-Mode and the LV end-diastolic diameter (LVEDD), LV end-systolic diameters (LVESD), LV anterior wall diastolic thickness (LVAWDT), and LV posterior wall diastolic thickness (LVPWDT) at M-Mode, as previously described (Abbate et al. Circulation 2008; 117:2670-83; Toldo et al. PloS One 2011; 6:e18102) and according to the American Society of Echocardiography recommendations (Gardin et al. J Am Soc Echocardiogr 2002; 15:272-90). LV fractional shortening (FS), LV ejection fraction (EF), LV mass and eccentricity (LVEDD/LVPWDT ratio) were calculated (Abbate et al. Circulation 2008; 117:2670-83; Toldo et al. PloS One 2011; 6:e18102; Gardin et al. J Am Soc Echocardiogr 2002; 15:272-90). The transmitral and left ventricular out flow tract Doppler spectra were recorded from an apical 4-chamber views, and the myocardial performance index (MPI or Tei index) was calculated as the […] of the isovolumetric contraction and relaxation time divided by the ejection time (Tei et al. Am J Cardiol 1995; 26:357-366). LV stroke volume was calculated using the Velocity-Time Integral (VTI) of the LV outflow tract flow multiplied by the LV outflow tract area, and cardiac output was calculated multiplying LV stroke volume by the heart rate (Abbate et al. Circulation 2008; 117:2670-83; Toldo et al. PloS One 2011; 6:e18102; Gardin et al. J Am Soc Echocardiogr 2002; 15:272-90). […]

[3] = system: male mice with permanent coronary artery ligation; assay: Mouse model of myocardial infarction: ECHO, plasma biomarkers, mortality (Example 5); assay type: in vivo
Description: The effect of Compound A in a mouse model of myocardial infarction was also determined. Male mice underwent permanent coronary artery ligation or sham surgery. Compound A (4 mg/kg) was given i.p. BID starting immediately or 1 hr after the surgery and continued for 14 days. Trans-thoracic ECHO to measure LV end-diastolic/systolic diameter (LVEDD or LVESD), RV end-diastolic area (RVEDA) and myocardial performance index (MPI) was performed prior to surgery and after 7, 14 and 28 days. Analysis of biomarkers of tissue inflammation and injury was conducted on 28 days post-MI.

[4] = system: rats with MI (25 minutes coronary occlusion followed by reperfusion); assay: Plasma biomarkers at 5 week post-MI, rat post-MI model (Example 6); assay type: in vivo
Description: The effects of Compound A in a rat model of post-MI remodeling and VT were determined. MI was caused by 25 minutes occlusion at the left anterior descending coronary ligation followed by reperfusion. One week later, rats were administered either vehicle or Compound A (100 mg/kg) once daily by oral gavage. Serial echocardiograms (ECHOs) to measure LV ejection fraction (LVEF), stroke volume and LV end systolic volume (LVESV) were obtained at baseline, 1 week and 5 week post-MI. Electrophysiological studies, optical mapping, histology and biomarker analysis were conducted at 5 week post-MI.

[5] = mice with MI, 4 mg/kg i.p. BID starting immediately or 1 hr after the surgery
[6] = mice with MI, day 28 post-MI, treatment immediately after surgery

CCCn1c(=O)c2[nH]c(-c3cnn(Cc4cccc(C(F)(F)F)c4)c3)nc2n(CC)c1=O [Compound A, 3-ethyl-1-propyl-8-(1-(3-(trifluoromethyl)benzyl)-1H-pyrazol-4-yl)-1H-purine-2,6(3H,7H)-dione]
effect of NECA on expression of α-1 pro-collagen [1]: completely abolished | effect of NECA on expression of α-smooth muscle actin [1]: completely abolished | effect of NECA on release of IL-6 [1]: completely abolished | effect of NECA on release of PAPPA [1]: completely abolished | effect of NECA on release of ST-2 [1]: completely abolished | effect of NECA on release of collagen [1]: completely abolished | myocardial diastolic/systolic performance (myocardial performance index) ([2]; AMI mice): preservation | right ventricular enlargement and dysfunction ([2]; AMI mice): less | absolute difference in mean LVEF vs vehicle ([2]; LV systolic function significantly greater in Compound A group): 5% | reduction of LV enlargement after AMI ([2]; at 28 days): approximately 40% | left and right ventricular enlargement and dysfunction ([2]; every 12 hours from surgery for 14 days, at 7 days, maintained at 14 and 28 days): significant attenuation | mortality rate (printed: morality rate) of mice with MI during the 4 weeks ([3]; 4 mg/kg i.p. BID for 14 days, vehicle 42%): 25% | increase of plasma level of sE-selectin ([3]; mice with MI): significantly inhibited | increase of plasma level of sICAM ([3]; mice with MI): significantly inhibited | increase of plasma level of sVCAM ([3]; mice with MI): significantly inhibited | LV/RV dimensions (LVEDD, LVESD, RVEDA) [3, 5]: significantly reduced | MPI [3, 5]: reduced | plasma concentration of IL-6 [3, 6]: significantly reduced | plasma concentration of ST2 [3, 6]: significantly reduced | plasma concentration of TNF-α [3, 6]: significantly reduced | myocardial remodeling/function in sham mice ([3]; sham mice): no effect | plasma biomarkers in sham-operated mice ([3]; sham-operated mice): no effect | plasma IL-6 [4]: significantly reduced | plasma PAI-1 [4]: significantly reduced | increase of plasma BNP ([4]; P=0.16): trend
